≈ marks a conversion by molar mass, not a printed value. Where “and” joins values, the source holds several entries; their conditions need not be identical. Equal values may be shown once. Where a name gives a salt, the structure may show the parent alone. One block for each compound: values may come before it.
Key:
pepsin = pepsin (Sus scrofa, UniProt P00791); test: anti-pepsin activity (50% inhibition of pepsin, ID50); type: biochemical; design: ID50 (50% inhibition against pepsin): unit not given beside the values; conditions: for ID50 (50% inhibition against pepsin): amount giving 50% inhibition of pepsin
pepsin, sequence (P00791 60-385): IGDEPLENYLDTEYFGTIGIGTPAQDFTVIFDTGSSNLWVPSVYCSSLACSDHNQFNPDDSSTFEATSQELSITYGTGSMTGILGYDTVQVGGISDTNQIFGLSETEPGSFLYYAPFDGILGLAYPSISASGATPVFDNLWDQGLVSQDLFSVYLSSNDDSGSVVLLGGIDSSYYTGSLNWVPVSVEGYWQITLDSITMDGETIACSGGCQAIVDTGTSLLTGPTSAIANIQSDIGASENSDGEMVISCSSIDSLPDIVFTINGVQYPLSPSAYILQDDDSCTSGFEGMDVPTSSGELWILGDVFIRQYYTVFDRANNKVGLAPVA

physchem = conditions: methanol, organic solvent or mixture

Compound: CC(=NNc1ccc([N+](=O)[O-])cc1[N+](=O)[O-])C(CC(C)C)NC(=O)C(C)NC(=O)CC(O)C(CC(C)C)NC(=O)C(NC(=O)C(NC(=O)CC(C)C)C(C)C)C(C)C (stereo not drawn)
pepsin-inhibitory activity as % of the activity of pepstatin (pepstatin A) (pepsin; relative to pepstatin A): 37%

Id50 (pepsin; unit not given, third crystals of Example 3): 0.05 | solubility (physchem): 5 to 10 mg/mL (≈ 7 to 14 mM)
Compound: CCCCCC(=O)N[C@H](C(=O)N[C@H](C(=O)NC(CC(C)C)C(O)CC(=O)N[C@@H](C)C(=O)NC(CC(C)C)C(O)CC(=O)OC)C(C)C)C(C)C (stereo partly drawn) [methyl ester of pepstatin B]
anti-pepsin activity compared with pepstatin methyl ester (pepsin; comparison in words): the same as that of pepstatin methyl ester

ID50 (50% inhibition against pepsin) (pepsin): 0.084 γ
Compound: CCCCCC(=O)N[C@H](C(=O)N[C@H](C(=O)NC(CC(C)C)C(O)CC(=O)N[C@@H](C)C(=O)NC(CC(C)C)C(O)CC(=O)OCCCC)C(C)C)C(C)C (stereo partly drawn) [new pepstatin B n-butyl ester]

ID50 (50% inhibition against pepsin) (pepsin): 0.054 γ
Compound: CCCCCC(=O)N[C@H](C(=O)N[C@H](C(=O)NC(CC(C)C)C(O)CC(=O)N[C@@H](C)C(=O)NC(CC(C)C)C(O)CC(=O)OCC)C(C)C)C(C)C (stereo partly drawn) [pepstatin B ethyl ester]

ID50 (50% inhibition against pepsin) (pepsin): 0.073 γ
Compound: CCCCCC(=O)N[C@H](C(=O)N[C@H](C(=O)NC(CC(C)C)C(O)CC(=O)N[C@@H](C)C(=O)NC(CC(C)C)C(O)CC(=O)OCCC)C(C)C)C(C)C (stereo partly drawn) [pepstatin B n-propylester]

solubility (physchem): 100 mg/mL (≈ 143 mM)
Compound: CCCCCC(=O)N[C@H](C(=O)N[C@H](C(=O)N[C@@H](CC(C)C)[C@@H](O)CC(=O)N[C@@H](C)C(=O)N[C@@H](CC(C)C)[C@@H](O)CC(=O)O)C(C)C)C(C)C [pepstatin B]

ID50 (50% inhibition against pepsin) (pepsin): 0.055 γ and 0.05 γ
Compound: CCCCCC(=O)N[C@H](C(=O)N[C@H](C(=O)NC(CC(C)C)C(O)CC(=O)N[C@@H](C)C(=O)NC(CC(C)C)C(O)CC(=O)O)C(C)C)C(C)C (stereo partly drawn) [sodium salt of pepstatin B]
